Laboratory results taken from PMC4512978, “Synthesis and evaluation in rats of homologous series of [^18F]-labeled dopamine D2/3 receptor agonists based on the 2-aminomethylchroman scaffold as potential PET tracers” (EJNMMI Research, 2015).

Tested on: D2/3R
Assay: Kinetic analysis of PET data (1TCM, 2TCM, Logan, SRTM);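 as to 2TCM BPND change relative to control: Raclopride 1 mg/kg intravenous pretreatment versus saline controls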;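 as to SRTM BPND change relative to control: Raclopride 1 mg/kg intravenous pretreatment versus saline controls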
Assay type: in vivo, Sprague-Dawley rats
Set-up: key to SRTM BPND / 1TCM BPND / 2TCM BPND (VT-based): BPND = VT(target)/VT(cerebellum) − 1 (or SRTM, cerebellum reference); SRTM BPND change relative to control / 1TCM BPND change relative to control / 2TCM BPND change relative to control / Logan BPND change relative to control: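 Raclopride 1 mg/kg intravenous pretreatment versus saline controls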; 1TCM VT / 2TCM VT: unit not given here
Experimental: Kinetic analysis is described using the nomenclature proposed by Innis et al.. ROI TACs of [^18F]FEt-AMC13 were analyzed with one-tissue and two-tissue compartmental models of reversible binding (1TCM and 2TCM, respectively) to obtain individual rate constants. From these, the regional distribution volumes (VT) were calculated and compared to those obtained with Logan graphical analysis. Binding potentials (BPND) were calculated from the distribution ratios as VT (target) / VT (cerebellum) – 1, or estimated with the simplified reference tissue model (SRTM) using the cerebellum as reference region.
Metabolite-corrected plasma-derived arterial input function and whole blood time-activity curve were used for Logan, 1TCM, and 2TCM analyses. Fractional cerebral blood volume was set to 3.6 % [27]. For one rat in the raclopride-treated group, no input curves could be obtained; therefore, its PET data were only analyzed with SRTM.
Degree of D2/3R-specific binding of the tracers was characterized by BPND (as given above) or the specific binding ratio (SBR) given as target region activity/cerebellar activity - 1. Both were calculated under control conditions and in response to the raclopride challenge.

[1] = Pituitary, raclopride, listed as [18F]FEt-AMC13
[2] = Striatum, raclopride, listed as [18F]FEt-AMC13
[3] = Thalamus, raclopride, listed as [18F]FEt-AMC13

In the case of `Oc1ccc2c(c1)O[C@@H](CNCc1ccc(OCC[18F])cc1)CC2` [[^18F]FEt-AMC13], the “SRTM BPND” value (Pituitary, raclopride) is reported as 0.55 ± 0.53, the “SRTM BPND change relative to control” value (Pituitary, raclopride) is reported as −22% and the “2TCM BPND change relative to control” value [1] is reported as -23%. For the same compound, the “SRTM BPND” value [1] was 0.55±0.53, the “SRTM BPND change relative to control” value [1] was “–22%” and the “1TCM BPND” value (Striatum, control) was 0.63 ± 0.08. For the same compound, the “1TCM VT” value (Striatum, control) was 7.60±0.64, the “2TCM BPND (VT-based)” value (Striatum, control) was 0.56 ± 0.05 and the “2TCM VT” value (Striatum, control) was 7.90±0.84. For the same compound, the “Logan BPND” value (Striatum, control) was 0.52 ± 0.01, the “Logan VT” value (Striatum, control) was 7.72±0.84 and the “SRTM BPND” value (Striatum, control) was 0.51 ± 0.02. For the same compound, the “1TCM K1” value (Striatum, control rat A) was 0.45 ± 0.03 mL/g/min, the “1TCM k2” value (Striatum, control rat A) was 0.05 ± 0.01 min⁻¹ and the “2TCM K1” value (Striatum, control rat A) was 1.77 ± 0.62 mL/g/min. The “2TCM k2” value (Striatum, control rat A) was 4.95 ± 3.00 min⁻¹, the “2TCM k3” value (Striatum, control rat A) was 1.34 ± 0.29 min⁻¹ and the “2TCM k4” value (Striatum, control rat A) was 0.05 ± 0.01 min⁻¹. For the same compound, the “1TCM K1” value (Striatum, control rat B) was 0.49 ± 0.02 mL/g/min, the “1TCM k2” value (Striatum, control rat B) was 0.06 ± 0.01 min⁻¹ and the “2TCM K1” value (Striatum, control rat B) was 0.63 ± 0.14 mL/g/min. The “2TCM k2” value (Striatum, control rat B) was 0.48 ± 0.68 min⁻¹, the “2TCM k3” value (Striatum, control rat B) was 0.81 ± 1.13 min⁻¹ and the “2TCM k4” value (Striatum, control rat B) was 0.17 ± 0.07 min⁻¹. For the same compound, the “1TCM K1” value (Striatum, control rat C) was 0.47 ± 0.02 mL/g/min, the “1TCM k2” value (Striatum, control rat C) was 0.07 ± 0.004 min⁻¹ and the “2TCM K1” value (Striatum, control rat C) was 0.98 ± 0.85 mL/g/min. For the same compound, the “2TCM k2” value (Striatum, control rat C) was 3.47 ± 8.55 min⁻¹, the “2TCM k3” value (Striatum, control rat C) was 2.81 ± 3.01 min⁻¹ and the “2TCM k4” value (Striatum, control rat C) was 0.11 ± 0.08 min⁻¹. The “1TCM K1” value (Striatum, control rat D) was 0.51 ± 0.02 mL/g/min, the “1TCM k2” value (Striatum, control rat D) was 0.07 ± 0.01 min⁻¹ and the “2TCM K1” value (Striatum, control rat D) was 8.06 ± 30.34 mL/g/min. For the same compound, the “2TCM k2” value (Striatum, control rat D) was 58.0 ± 203.8 min⁻¹, the “2TCM k3” value (Striatum, control rat D) was 3.54 ± 188.40 min⁻¹ and the “2TCM k4” value (Striatum, control rat D) was 0.07 ± 263.98 min⁻¹. The “1TCM BPND” value (Striatum, raclopride) was 0.51±0.06, the “1TCM BPND change relative to control” value (Striatum, raclopride) was -18% and the “1TCM VT” value (Striatum, raclopride) was 6.69±0.41. The “2TCM BPND (VT-based)” value (Striatum, raclopride) was 0.41 ± 0.05, the “2TCM BPND change relative to control” value (Striatum, raclopride) was −27% and the “2TCM VT” value (Striatum, raclopride) was 6.97±0.39. The “Logan BPND” value (Striatum, raclopride) was 0.40±0.04, the “Logan BPND change relative to control” value (Striatum, raclopride) was -24% and the “Logan VT” value (Striatum, raclopride) was 6.97±0.32. The “SRTM BPND” value (Striatum, raclopride) was 0.38 ± 0.05, the “SRTM BPND change relative to control” value (Striatum, raclopride) was −26% and the “2TCM BPND (VT-based)” value [2] was 0.41±0.05. For the same compound, the “2TCM BPND change relative to control” value [2] was -27%, the “SRTM BPND” value [2] was 0.38±0.05 and the “SRTM BPND change relative to control” value [2] was “–26%”. For the same compound, the “1TCM BPND” value (Thalamus, control) was 0.38±0.06, the “1TCM VT” value (Thalamus, control) was 6.45±0.62 and the “2TCM BPND (VT-based)” value (Thalamus, control) was 0.33 ± 0.02. The “2TCM VT” value (Thalamus, control) was 6.75±0.62, the “Logan BPND” value (Thalamus, control) was 0.31±0.02 and the “Logan VT” value (Thalamus, control) was 6.64±0.61. The “SRTM BPND” value (Thalamus, control) was 0.28 ± 0.06, the “1TCM K1” value (Thalamus, control rat A) was 0.44 ± 0.02 mL/g/min and the “1TCM k2” value (Thalamus, control rat A) was 0.06 ± 0.01 min⁻¹. For the same compound, the “2TCM K1” value (Thalamus, control rat A) was 14.0 ± 117.5 mL/g/min, the “2TCM k2” value (Thalamus, control rat A) was 104 ± 848 min⁻¹ and the “2TCM k3” value (Thalamus, control rat A) was 3.05 ± 820.48 min⁻¹. The “2TCM k4” value (Thalamus, control rat A) was 0.05 ± 961.03 min⁻¹, the “1TCM K1” value (Thalamus, control rat B) was 0.65 ± 0.03 mL/g/min and the “1TCM k2” value (Thalamus, control rat B) was 0.10 ± 0.01 min⁻¹. For the same compound, the “2TCM K1” value (Thalamus, control rat B) was 0.88 ± 0.12 mL/g/min, the “2TCM k2” value (Thalamus, control rat B) was 0.58 ± 0.58 min⁻¹ and the “2TCM k3” value (Thalamus, control rat B) was 0.67 ± 1.63 min⁻¹. The “2TCM k4” value (Thalamus, control rat B) was 0.19 ± 1.99 min⁻¹, the “1TCM K1” value (Thalamus, control rat C) was 0.55 ± 0.02 mL/g/min and the “1TCM k2” value (Thalamus, control rat C) was 0.09 ± 0.01 min⁻¹. The “2TCM K1” value (Thalamus, control rat C) was 0.71 ± 0.13 mL/g/min, the “2TCM k2” value (Thalamus, control rat C) was 0.48 ± 0.97 min⁻¹ and the “2TCM k3” value (Thalamus, control rat C) was 0.76 ± 3.17 min⁻¹. The “2TCM k4” value (Thalamus, control rat C) was 0.23 ± 3.61 min⁻¹, the “1TCM K1” value (Thalamus, control rat D) was 0.64 ± 0.03 mL/g/min and the “1TCM k2” value (Thalamus, control rat D) was 0.11 ± 0.01 min⁻¹. For the same compound, the “2TCM K1” value (Thalamus, control rat D) was 3.13 ± 3.18 mL/g/min, the “2TCM k2” value (Thalamus, control rat D) was 12.3 ± 18.9 min⁻¹ and the “2TCM k3” value (Thalamus, control rat D) was 2.61 ± 0.96 min⁻¹. The “2TCM k4” value (Thalamus, control rat D) was 0.11 ± 0.02 min⁻¹, the “1TCM BPND” value (Thalamus, raclopride) was 0.33±0.04 and the “1TCM BPND change relative to control” value (Thalamus, raclopride) was -12%. For the same compound, the “1TCM VT” value (Thalamus, raclopride) was 5.93±0.71, the “2TCM BPND (VT-based)” value (Thalamus, raclopride) was 0.30 ± 0.01 and the “2TCM BPND change relative to control” value (Thalamus, raclopride) was −10%. The “2TCM VT” value (Thalamus, raclopride) was 6.44±0.60, the “Logan BPND” value (Thalamus, raclopride) was 0.28±0.005 and the “Logan BPND change relative to control” value (Thalamus, raclopride) was -10%. The “Logan VT” value (Thalamus, raclopride) was 6.40±0.40, the “SRTM BPND” value (Thalamus, raclopride) was 0.26 ± 0.02 and the “SRTM BPND change relative to control” value (Thalamus, raclopride) was −7%. The “2TCM BPND (VT-based)” value [3] was 0.30±0.01, the “2TCM BPND change relative to control” value [3] was -10% and the “SRTM BPND” value [3] was 0.26±0.02. The “SRTM BPND change relative to control” value [3] was “–7%”, the “part of cerebellar VT potentially displaceable (D2/3R specific binding)” value (modified Lassen plot) was 11–26% and the “part of striatal VT potentially displaceable (D2/3R specific binding)” value (modified Lassen plot) was 41–55%. For the same compound, the “Striatal BPND relative to cerebellum” value (range depending on the estimation method) was 0.51–0.63.
